Measured values: US20150031598A1, “NEMO BINDING DOMAIN FUSION PROTEINS” (Encode Bio, Inc., priority 2012, published 2015)
Ends that are not written are not given here.

Legend:
[1] = test system: NF-κB signaling; test: TNFα-mediated SEAP expression in pNiFty-SEAP transfected HEK293 cells (NF-κB reporter); assay type: cell-based; settings: for block of TNFα-mediated SEAP expression (in words): pNiFty-SEAP transfected HEK293 cells
Description: HEK293 cells were transfected with the plasmid pNiFty-SEAP which encodes for a secreted alkaline phosphatase (SEAP) whose expression is under control of an ELAM-1 composite promoter containing five NF-κB sites. Treatment of cells with TNFα causes activation of the IkB kinase complex and, in turn, NF-κB, resulting in SEAP expression. We verified that pNiFty-SEAP transfected HEK293 cells treated with the NBD Peptide (FIG. 2; FIG. 3, Panel B) blocked the expression of TNFα-mediated SEAP expression in a concentration-dependent manner with an IC50 of ˜60 μM. […] Treatment of cells with circularized NBD-MCoTI-II generated in bacteria (data not shown) or linear NBD-MCoTI-II generated by automated synthesis (FIG. 2; FIG. 3 Panel A) blocked TNFα-mediated SEAP expression, but not WT MCoTI-II (FIG. 2).

[2] = test system: HEK293 cells; assay type: cell-based; settings: concentrations up to 1 μM
[3] = test system: collagen-induced arthritis; test: Mouse collagen-induced arthritis (CIA) model, therapeutic mode; assay type: in vivo, male DBA/1J mice
Protocol: We next tested the efficacy of linear NBD-MCoTI-II in the mouse CIA model in therapeutic mode, a standard model for evaluating anti-arthritic activity. Mice were injected with collagen type II. CIA was induced in male DBA/1J mice by tail injection of Type II collagen (100 μg) mixed with complete Freund's adjuvant. On Day 21, a booster injection (i.p.) of collagen (100 μg)/incomplete Freund's adjuvant was administered. The severity of arthritis (arthritic index (AI)) was scored in each paw as follows: 0-no evidence of erythema and swelling, 1-erythema and mild swelling confined to the mid-foot (tarsals) or ankle joint, 2-erythema and mild swelling extending from the ankle to the mid-foot, 3-erythema and moderate swelling extending from the ankle to the metatarsal joints and 4-erythema and severe swelling encompass the ankle, foot and digits. AI scores were measured in each paw and summed (maximum score of 16 per mouse). After the AI score reached an average of 3.1 on Day 27, mice were separated into three treatment groups and administered (i.p.) daily: saline, 100 μg/kg NBD-MCoTI-II and 3 mg/kg dexamethasone for 14 days. AI scores, body weights, paw thickness and any signs of distress were monitored daily. […] The marked inhibition of arthritic disease progression by NBD-MCoTI-II persisted for the study duration. […] The effect lasted the study duration.
To further assess the efficacy of linear NBD-MCoTI-II we performed histopathology analysis of the studies on the joints of CIA mice treated with saline and NBD-MCoTI-II (100 μg/kg).
To compare the efficacy of NBD-MCoTI-II to existing anti-arthritic drugs we calculated a composite histopathology score for the CIA mice from the individual scores of inflammation, pannus, cartilage damage and bone resorption by adding them. Shown in FIG. 9 is a comparison of the composite histopathology scores for NBD-MCoTI-II (100 μg/kg) to published values for the existing anti-arthritic drugs Enbrel™ (15 mg/kg), Orencia™ (5 mg/kg), Xeljanz™ (10 mg/kg) and INCB028050 (15/mg). Data are presented as a percent of the composite histopathology scores for CIA mice treated with saline. […] J Immunol 184:5298-307, the contents of each of which are herein incorporated by reference in their entireties). […] Thus, linear NBD-MCoTI-II prevented joint damage while the other anti-arthritic drugs were only capable of reducing joint damage.
Splenomegaly is associated with arthritis and has been observed in the mouse CIA model [(see, e.g., Foell J L et al., (2004) Engagement of the CD137 (4-1BB) costimulatory molecule inhibits and reverses the autoimmune process in collagen-induced arthritis and establishes lasting disease resistance. Immunology 113:89-98; and Liu Y et al., (2011) Therapeutic effects of TACI-Ig on collagen-induced arthritis by regulating T and B lymphocytes function in DBA/1 mice. Eur J Pharmacol 654:304-14); the contents of each of which are herein incorporated by reference in their entirities)].
Mouse body weights were unchanged relative to saline controls.

[4] = test system: carrageenan-induced paw edema; test: Mouse carrageenan paw edema (CPE) model; assay type: in vivo; settings: for reduction of swelling: 12 hours post-carrageenan
Protocol: Anti-inflammatory activity of linear NBD-MCoTI-II was tested at two doses (5 and 25 μg/kg) in the mouse CPE model. Mice were administered (i.p.) either NBD-MCoTI-II, dexamethasone (10 mg/kg) or saline one hour prior to inducing edema by carrageenan injection into the subplantar region of the left hind foot. Swelling was then measured by water displacement method at 2, 4, 6 and 12 hours post-carrageenan injection. […] At 12 hours, 5 and 25 μg/kg NBD MCoTI-II reduced swelling 30 and 50%, respectively (FIG. 5). […] (FIG. 5).

[5] = molecular target: NEMO (nuclear factor kB essential modulator) (UniProt Q9Y6K9 1-419); test: cell-based or functional assay
[6] = molecular target: NEMO (nuclear factor kB essential modulator) (UniProt Q9Y6K9); test: cell-based or functional assay
Sequence of NEMO (nuclear factor kB essential modulator) (UniProt Q9Y6K9) (Q9Y6K9 whole entry): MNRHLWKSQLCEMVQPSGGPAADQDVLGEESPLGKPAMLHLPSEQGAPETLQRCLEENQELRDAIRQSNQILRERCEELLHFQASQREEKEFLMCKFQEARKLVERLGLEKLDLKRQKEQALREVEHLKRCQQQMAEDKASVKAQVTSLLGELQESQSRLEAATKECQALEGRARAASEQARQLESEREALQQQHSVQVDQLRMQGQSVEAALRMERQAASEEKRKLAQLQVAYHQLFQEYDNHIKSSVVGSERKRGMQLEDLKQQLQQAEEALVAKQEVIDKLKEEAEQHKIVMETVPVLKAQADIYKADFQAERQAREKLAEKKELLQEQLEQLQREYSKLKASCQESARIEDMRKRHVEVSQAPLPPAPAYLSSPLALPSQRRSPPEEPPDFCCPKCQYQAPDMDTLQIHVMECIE

Sequence of NEMO (nuclear factor kB essential modulator) (UniProt Q9Y6K9 1-419) (Q9Y6K9 whole entry): as above

WT MCoTI-II: wild-type MCoTI-II (SEQ ID NO:3), cystine-knot microprotein, trypsin inhibitor subfamily (MCGSGSDGGVCPKILKKCRRDSDCPGACICRGNGY; disulfide (positions not given here); not fully specified; listed as Homo sapiens) [reference compound]
block of TNFα-mediated SEAP expression (in words) [1]: not | overt cellular toxicity [2]: no overt cellular toxicity

FTALDWSWLQTCPKILKKCRRDSDCPGACICRGNGYC [linear NBD-MCoTI-II]
potency relative to NBD peptide, inhibition of NF-κB signaling ([1]; cell-based assay, versus NBD Peptide): 10^6 fold | block of TNFα-mediated SEAP expression (in words) [1]: blocked | joint histopathology scores (inflammation, pannus, cartilage damage, bone resorption) ([3]; 100 μg/kg): at or near zero | progression of arthritis (arthritic index score) ([3]; 100 μg/kg i.p. daily, by Day 29, p<0.01, persisted for the study duration): halted the progression of arthritis | increase in paw thickness ([3]; 100 μg/kg i.p. daily, p<0.01, lasted the study duration): blocked the increase in paw thickness | composite histopathology score ([3]; 100 μg/kg, percent of saline-treated CIA mice): almost zero | kidney, liver and intestine weights ([3]; CIA mice): within normal ranges | laboratory blood analysis (blood chemistry, kidney function tests, ALT, AST, blood cell counts) ([3]; CIA mice): within normal ranges | signs of toxicity or distress ([3]; CIA mice, 100 μg/kg i.p. daily for 14 days): no obvious signs of toxicity or distress | spleen weight ([3]; CIA mice, saline 135±27 mg, p<0.01): 100 ± 17 mg | efficacy relative to CP690550 (Xeljanz) and anti-TNF Ab control in ameliorating arthritic symptoms ([3]; comparison with Milici 2008): at least as effective | mouse body weights ([3]; relative to saline controls): unchanged | in vivo potency relative to NBD Peptide ([4]; 5 μg/kg NBD-MCoTI-II similar to NBD Peptide 25 mg/kg (di Meglio 2005)): 5000 fold | reduction of swelling ([4]; 5 μg/kg i.p.): 30% | reduction of swelling ([4]; 25 μg/kg i.p.): 50% | swelling (in words) ([4]; 5 and 25 μg/kg i.p., 4, 6 and 12 hours post-carrageenan): significantly reduced swelling | overt cellular toxicity [2]: no overt cellular toxicity

circularized NBD-MCoTI-II: circular, native-folded NBD-MCoTI-II generated in bacteria; sequence after processing SEQ ID NO:10 (cyclo(FTALDWSWLQTCPKILKKCRRDSDCPGACICRGNGYC); ends not checked; also: native-folded, disulfide pairing not given here)
block of TNFα-mediated SEAP expression (in words) [1]: blocked

B1: linear NBD-MCoTI-II generated by automated synthesis (designed binder)
chain: FTALDWSWLQTCPKILKKCRRDSDCPGACICRGNGYC
modifications: ends and bridges not checked; also: folded in glutathione buffers, disulfides not placed
IC50 for blocking TNFα-mediated SEAP expression (NF-κB reporter, pNiFty-SEAP transfected HEK293 cells) [5]: 60 pM

FTALDWSWLQT (peptide, part only; not given: cell penetrating peptide, part only, not fully specified) [NBD Peptide]
IC50 for blocking TNFα-mediated SEAP expression (NF-κB reporter, pNiFty-SEAP transfected HEK293 cells) [6]: 60 µM
